Source: patent publication US8697684B2, “Azetidinyl diamides as monoacylglycerol lipase inhibitors” (Janssen Pharmaceutica NV, priority 2009, dated 2014)

Test system: rat
Test: CFA-Induced Paw Radiant Heat Hypersensitivity
Type: in vivo
Conditions: CFA thermal hypersensitivity, 30 mg/kg p.o., HPβCD, group mean values, last time point 180 or 300 min
Procedure: Each rat was placed in a test chamber on a warm glass surface and allowed to acclimate for approximately 10 min. A radiant thermal stimulus (beam of light) was then focused through the glass onto the plantar surface of each hind paw in turn. The thermal stimulus was automatically shut off by a photoelectric relay when the paw was moved or when the cut-off time was reached (20 sec for radiant heat at ˜5 amps). An initial (baseline) response latency to the thermal stimulus was recorded for each animal prior to the injection of complete Freund's adjuvant (CFA). 24 h following intraplantar CFA injection, the response latency of the animal to the thermal stimulus was then re-evaluated and compared to the animal's baseline response time. […] Post-compound treatment withdrawal latencies were assessed at fixed time intervals, typically 30, 60, 120, 180, and 300 min.
The percent reversal (% R) of hypersensitivity was calculated in one of two different ways: 1) using group mean values or 2) using individual animal values. […]
Method 1. For all compounds, the % R of hypersensitivity was calculated using the mean value for groups of animals at each time point according to the following formula: % reversal=[(group treatment response−group CFA response)/(group baseline response−group CFA response)]×100 Results are given for the maximum % reversal observed for each compound at any time point tested. […]

## O=C(c1ccc(-c2cccc(C(F)(F)F)c2)c(Cl)c1)N1CC(N2CCN(C(=O)c3cscn3)CC2)C1 [Cpd 1102]
  Method 1: peak % reversal: 38%
